Measured values: ChEMBL document CHEMBL3627608, “Crystal structures of human RIP2 kinase catalytic domain complexed with ATP-competitive inhibitors: Foundations for understanding inhibitor selectivity” (Bioorg Med Chem, 2015)

Experiments:
[1] = target: LIM domain kinase 2 (Homo sapiens) (UniProt P53671); assay: Inhibition of LIMK2 (unknown origin) at 10 uM after 120 mins P33 radiolabeled kinase activity assay
[2] = target: Serine/threonine-protein kinase tousled-like 1 (Homo sapiens) (UniProt Q9UKI8); assay: Inhibition of TLK1 (unknown origin) at 10 uM after 120 mins P33 radiolabeled kinase activity assay
[3] = target: TGF-beta receptor type-2 (Homo sapiens) (UniProt P37173); assay: Inhibition of TGFBR2 (unknown origin) at 10 uM after 120 mins P33 radiolabeled kinase activity assay
[4] = target: Protein kinase C theta type (Homo sapiens) (UniProt Q04759); assay: Inhibition of PKCtheta (unknown origin) at 10 uM after 120 mins P33 radiolabeled kinase activity assay
[5] = target: Serine/threonine-protein kinase tousled-like 2 (Homo sapiens) (UniProt Q86UE8); assay: Inhibition of TLK2 (unknown origin) at 10 uM after 120 mins P33 radiolabeled kinase activity assay
[6] = target: Mitogen-activated protein kinase kinase kinase 21 (Homo sapiens) (UniProt Q5TCX8); assay: Inhibition of MLK4 (unknown origin) at 10 uM after 120 mins P33 radiolabeled kinase activity assay
[7] = target: Mitogen-activated protein kinase 10 (Homo sapiens) (UniProt P53779); assay: Inhibition of JNK3 (unknown origin) at 10 uM after 120 mins P33 radiolabeled kinase activity assay
[8] = target: Casein kinase II subunit alpha' (Homo sapiens) (UniProt P19784); assay: Inhibition of CK2alpha2 (unknown origin) at 10 uM after 120 mins P33 radiolabeled kinase activity assay
Sequence of Casein kinase II subunit alpha' (Homo sapiens) (P19784 whole entry, looked up): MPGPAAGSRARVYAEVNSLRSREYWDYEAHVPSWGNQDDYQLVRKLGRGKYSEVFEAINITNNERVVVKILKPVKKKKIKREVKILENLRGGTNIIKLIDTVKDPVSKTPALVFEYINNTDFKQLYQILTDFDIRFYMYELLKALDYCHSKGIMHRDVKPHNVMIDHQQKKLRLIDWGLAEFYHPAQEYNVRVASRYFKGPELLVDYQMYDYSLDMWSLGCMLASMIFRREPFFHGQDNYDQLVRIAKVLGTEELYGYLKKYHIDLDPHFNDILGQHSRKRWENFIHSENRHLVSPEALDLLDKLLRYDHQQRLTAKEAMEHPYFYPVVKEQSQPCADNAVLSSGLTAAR

[9] = target: Serine/threonine-protein kinase 16 (Homo sapiens) (UniProt O75716); assay: Inhibition of STK16 (unknown origin) at 10 uM after 120 mins P33 radiolabeled kinase activity assay
[10] = target: RAC-gamma serine/threonine-protein kinase (Homo sapiens) (UniProt Q9Y243); assay: Inhibition of AKT3 (unknown origin) at 10 uM after 120 mins P33 radiolabeled kinase activity assay
[11] = target: Serine/threonine-protein kinase PAK 1 (Homo sapiens) (UniProt Q13153); assay: Inhibition of PAK1 (unknown origin) at 10 uM after 120 mins P33 radiolabeled kinase activity assay
Sequence of Serine/threonine-protein kinase PAK 1 (Homo sapiens) (Q13153 whole entry): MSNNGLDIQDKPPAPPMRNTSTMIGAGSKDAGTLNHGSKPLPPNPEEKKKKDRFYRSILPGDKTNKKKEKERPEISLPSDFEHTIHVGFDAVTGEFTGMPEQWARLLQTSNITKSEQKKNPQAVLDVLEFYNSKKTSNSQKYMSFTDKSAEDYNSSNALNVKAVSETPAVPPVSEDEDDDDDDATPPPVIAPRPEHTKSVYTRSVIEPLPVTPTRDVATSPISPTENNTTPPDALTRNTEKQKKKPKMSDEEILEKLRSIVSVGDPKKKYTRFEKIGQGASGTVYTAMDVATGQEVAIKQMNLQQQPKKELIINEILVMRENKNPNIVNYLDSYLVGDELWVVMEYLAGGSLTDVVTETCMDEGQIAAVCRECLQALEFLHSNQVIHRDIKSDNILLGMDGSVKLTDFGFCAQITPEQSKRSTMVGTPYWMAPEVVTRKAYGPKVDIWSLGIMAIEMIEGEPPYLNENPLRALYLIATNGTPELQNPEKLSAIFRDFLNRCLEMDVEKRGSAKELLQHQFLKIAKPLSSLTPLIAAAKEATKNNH

[12] = target: Bone morphogenetic protein receptor type-2 (Homo sapiens) (UniProt Q13873); assay: Inhibition of BMPR2 (unknown origin) at 10 uM after 120 mins P33 radiolabeled kinase activity assay
Sequence of Bone morphogenetic protein receptor type-2 (Homo sapiens) (Q13873 whole entry): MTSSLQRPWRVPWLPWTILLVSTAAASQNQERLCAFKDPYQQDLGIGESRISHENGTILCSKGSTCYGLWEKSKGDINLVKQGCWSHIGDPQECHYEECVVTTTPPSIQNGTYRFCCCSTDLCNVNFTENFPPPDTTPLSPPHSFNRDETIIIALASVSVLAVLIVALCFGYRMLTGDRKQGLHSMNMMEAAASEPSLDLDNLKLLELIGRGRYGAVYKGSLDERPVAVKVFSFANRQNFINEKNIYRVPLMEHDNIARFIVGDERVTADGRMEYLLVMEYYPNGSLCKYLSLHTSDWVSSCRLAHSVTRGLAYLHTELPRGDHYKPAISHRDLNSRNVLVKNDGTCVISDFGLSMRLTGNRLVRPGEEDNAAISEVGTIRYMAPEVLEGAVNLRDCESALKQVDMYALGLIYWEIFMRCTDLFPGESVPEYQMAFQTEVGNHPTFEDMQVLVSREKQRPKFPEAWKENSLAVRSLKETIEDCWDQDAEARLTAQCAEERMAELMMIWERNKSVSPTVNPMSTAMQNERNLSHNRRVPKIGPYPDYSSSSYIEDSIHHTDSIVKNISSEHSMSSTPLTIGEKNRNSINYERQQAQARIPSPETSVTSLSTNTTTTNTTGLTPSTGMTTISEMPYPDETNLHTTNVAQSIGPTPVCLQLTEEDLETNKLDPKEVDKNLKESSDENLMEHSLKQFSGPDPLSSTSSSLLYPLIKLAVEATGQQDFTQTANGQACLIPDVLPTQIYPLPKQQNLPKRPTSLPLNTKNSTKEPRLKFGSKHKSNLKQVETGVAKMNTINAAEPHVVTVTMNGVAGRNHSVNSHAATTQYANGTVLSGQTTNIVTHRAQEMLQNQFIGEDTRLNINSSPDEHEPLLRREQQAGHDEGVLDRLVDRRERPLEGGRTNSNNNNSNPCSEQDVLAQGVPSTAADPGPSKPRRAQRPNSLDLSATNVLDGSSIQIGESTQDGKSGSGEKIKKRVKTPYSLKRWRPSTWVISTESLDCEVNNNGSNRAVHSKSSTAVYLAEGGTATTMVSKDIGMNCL

[13] = target: Dual specificity mitogen-activated protein kinase kinase 4 (Homo sapiens) (UniProt P45985); assay: Inhibition of MKK4 (unknown origin) at 10 uM after 120 mins P33 radiolabeled kinase activity assay
Sequence of Dual specificity mitogen-activated protein kinase kinase 4 (Homo sapiens) (P45985 whole entry): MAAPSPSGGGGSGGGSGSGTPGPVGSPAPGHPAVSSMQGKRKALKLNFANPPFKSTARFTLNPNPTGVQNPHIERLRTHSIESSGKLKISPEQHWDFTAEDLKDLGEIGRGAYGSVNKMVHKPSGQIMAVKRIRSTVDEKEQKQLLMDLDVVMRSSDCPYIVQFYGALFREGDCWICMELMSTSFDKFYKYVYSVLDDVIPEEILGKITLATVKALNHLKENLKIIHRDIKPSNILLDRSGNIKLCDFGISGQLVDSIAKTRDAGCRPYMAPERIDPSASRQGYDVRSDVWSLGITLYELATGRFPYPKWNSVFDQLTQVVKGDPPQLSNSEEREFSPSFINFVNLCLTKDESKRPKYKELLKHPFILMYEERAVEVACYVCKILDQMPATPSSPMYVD

[14] = target: Mitogen-activated protein kinase kinase kinase 3 (Homo sapiens) (UniProt Q99759); assay: Inhibition of MEKK3 (unknown origin) at 10 uM after 120 mins P33 radiolabeled kinase activity assay
[15] = tested on: Fibroblast growth factor receptor; assay: Inhibition of FGFR (unknown origin) at 10 uM after 120 mins P33 radiolabeled kinase activity assay; details: Homo sapiens
[16] = target: Mitogen-activated protein kinase kinase kinase 8 (Homo sapiens) (UniProt P41279); assay: Inhibition of COT1 (unknown origin) at 10 uM after 120 mins P33 radiolabeled kinase activity assay
[17] = target: Dual specificity mitogen-activated protein kinase kinase 6 (Homo sapiens) (UniProt P52564); assay: Inhibition of MKK6 (unknown origin) at 10 uM after 120 mins P33 radiolabeled kinase activity assay
[18] = target: Calcium/calmodulin-dependent protein kinase type II subunit alpha (Homo sapiens) (UniProt Q9UQM7); assay: Inhibition of CAMK2alpha (unknown origin) at 10 uM after 120 mins P33 radiolabeled kinase activity assay
Sequence of Calcium/calmodulin-dependent protein kinase type II subunit alpha (Homo sapiens) (Q9UQM7 whole entry): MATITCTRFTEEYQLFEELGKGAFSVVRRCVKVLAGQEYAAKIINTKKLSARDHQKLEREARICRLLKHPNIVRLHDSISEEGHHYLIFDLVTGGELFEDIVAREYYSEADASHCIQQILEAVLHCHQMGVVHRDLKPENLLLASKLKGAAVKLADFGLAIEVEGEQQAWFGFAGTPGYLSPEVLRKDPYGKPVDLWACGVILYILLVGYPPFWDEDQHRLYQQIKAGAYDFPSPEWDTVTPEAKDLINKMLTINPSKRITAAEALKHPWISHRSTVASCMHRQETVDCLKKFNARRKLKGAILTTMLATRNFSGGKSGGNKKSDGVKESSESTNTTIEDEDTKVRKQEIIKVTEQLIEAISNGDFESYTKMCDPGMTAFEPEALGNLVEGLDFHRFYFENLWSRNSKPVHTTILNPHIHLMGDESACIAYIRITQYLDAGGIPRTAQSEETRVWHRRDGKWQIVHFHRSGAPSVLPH

[19] = target: Activin receptor type-1B (Homo sapiens) (UniProt P36896); assay: Inhibition of ALK4 (unknown origin) at 10 uM after 120 mins P33 radiolabeled kinase activity assay
[20] = target: Serine/threonine-protein kinase ICK (Homo sapiens) (UniProt Q9UPZ9); assay: Inhibition of LCK2 (unknown origin) at 10 uM after 120 mins P33 radiolabeled kinase activity assay
[21] = target: Dual specificity mitogen-activated protein kinase kinase 1 (Homo sapiens) (UniProt Q02750); assay: Inhibition of MEK1 (unknown origin) at 10 uM after 120 mins P33 radiolabeled kinase activity assay
Sequence of Dual specificity mitogen-activated protein kinase kinase 1 (Homo sapiens) (Q02750 whole entry): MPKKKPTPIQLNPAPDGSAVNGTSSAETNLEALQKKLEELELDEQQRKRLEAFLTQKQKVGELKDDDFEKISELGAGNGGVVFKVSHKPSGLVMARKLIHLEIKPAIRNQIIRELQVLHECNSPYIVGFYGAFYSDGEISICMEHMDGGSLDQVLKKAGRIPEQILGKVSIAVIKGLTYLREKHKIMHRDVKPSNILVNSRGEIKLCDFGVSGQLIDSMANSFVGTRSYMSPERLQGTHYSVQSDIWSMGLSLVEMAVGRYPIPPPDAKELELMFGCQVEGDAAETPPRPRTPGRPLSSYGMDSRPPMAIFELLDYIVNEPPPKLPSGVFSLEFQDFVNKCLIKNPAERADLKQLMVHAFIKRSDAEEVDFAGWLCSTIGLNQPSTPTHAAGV

[22] = target: Calcium/calmodulin-dependent protein kinase kinase 1 (Homo sapiens) (UniProt Q8N5S9); assay: Inhibition of CAMKK1 (unknown origin) at 10 uM after 120 mins P33 radiolabeled kinase activity assay
[23] = target: Serine/threonine-protein kinase 25 (Homo sapiens) (UniProt O00506); assay: Inhibition of STK25 (unknown origin) at 10 uM after 120 mins P33 radiolabeled kinase activity assay
[24] = target: Serine/threonine-protein kinase VRK2 (Homo sapiens) (UniProt Q86Y07); assay: Inhibition of VRK2 (unknown origin) at 10 uM after 120 mins P33 radiolabeled kinase activity assay
Sequence of Serine/threonine-protein kinase VRK2 (Homo sapiens) (Q86Y07 whole entry): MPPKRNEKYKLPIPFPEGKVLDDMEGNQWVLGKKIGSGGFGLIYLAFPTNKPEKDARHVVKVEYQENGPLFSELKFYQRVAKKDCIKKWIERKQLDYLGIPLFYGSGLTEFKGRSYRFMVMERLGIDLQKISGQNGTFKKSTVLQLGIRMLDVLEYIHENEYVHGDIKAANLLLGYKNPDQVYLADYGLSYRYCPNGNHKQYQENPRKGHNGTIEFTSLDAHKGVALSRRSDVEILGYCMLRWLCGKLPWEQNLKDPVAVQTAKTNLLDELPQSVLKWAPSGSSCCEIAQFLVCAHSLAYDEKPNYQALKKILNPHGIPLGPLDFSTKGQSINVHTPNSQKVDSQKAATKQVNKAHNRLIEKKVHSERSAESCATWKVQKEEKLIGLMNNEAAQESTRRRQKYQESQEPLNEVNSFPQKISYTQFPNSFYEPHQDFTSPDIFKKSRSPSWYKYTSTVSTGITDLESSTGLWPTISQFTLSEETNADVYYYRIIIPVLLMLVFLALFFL

[25] = target: Megakaryocyte-associated tyrosine-protein kinase (Homo sapiens) (UniProt P42679); assay: Inhibition of CTK (unknown origin) at 10 uM after 120 mins P33 radiolabeled kinase activity assay
[26] = target: Tau-tubulin kinase 1 (Homo sapiens) (UniProt Q5TCY1); assay: Inhibition of TTBK1 (unknown origin) at 10 uM after 120 mins P33 radiolabeled kinase activity assay
Sequence of Tau-tubulin kinase 1 (Homo sapiens) (Q5TCY1 whole entry): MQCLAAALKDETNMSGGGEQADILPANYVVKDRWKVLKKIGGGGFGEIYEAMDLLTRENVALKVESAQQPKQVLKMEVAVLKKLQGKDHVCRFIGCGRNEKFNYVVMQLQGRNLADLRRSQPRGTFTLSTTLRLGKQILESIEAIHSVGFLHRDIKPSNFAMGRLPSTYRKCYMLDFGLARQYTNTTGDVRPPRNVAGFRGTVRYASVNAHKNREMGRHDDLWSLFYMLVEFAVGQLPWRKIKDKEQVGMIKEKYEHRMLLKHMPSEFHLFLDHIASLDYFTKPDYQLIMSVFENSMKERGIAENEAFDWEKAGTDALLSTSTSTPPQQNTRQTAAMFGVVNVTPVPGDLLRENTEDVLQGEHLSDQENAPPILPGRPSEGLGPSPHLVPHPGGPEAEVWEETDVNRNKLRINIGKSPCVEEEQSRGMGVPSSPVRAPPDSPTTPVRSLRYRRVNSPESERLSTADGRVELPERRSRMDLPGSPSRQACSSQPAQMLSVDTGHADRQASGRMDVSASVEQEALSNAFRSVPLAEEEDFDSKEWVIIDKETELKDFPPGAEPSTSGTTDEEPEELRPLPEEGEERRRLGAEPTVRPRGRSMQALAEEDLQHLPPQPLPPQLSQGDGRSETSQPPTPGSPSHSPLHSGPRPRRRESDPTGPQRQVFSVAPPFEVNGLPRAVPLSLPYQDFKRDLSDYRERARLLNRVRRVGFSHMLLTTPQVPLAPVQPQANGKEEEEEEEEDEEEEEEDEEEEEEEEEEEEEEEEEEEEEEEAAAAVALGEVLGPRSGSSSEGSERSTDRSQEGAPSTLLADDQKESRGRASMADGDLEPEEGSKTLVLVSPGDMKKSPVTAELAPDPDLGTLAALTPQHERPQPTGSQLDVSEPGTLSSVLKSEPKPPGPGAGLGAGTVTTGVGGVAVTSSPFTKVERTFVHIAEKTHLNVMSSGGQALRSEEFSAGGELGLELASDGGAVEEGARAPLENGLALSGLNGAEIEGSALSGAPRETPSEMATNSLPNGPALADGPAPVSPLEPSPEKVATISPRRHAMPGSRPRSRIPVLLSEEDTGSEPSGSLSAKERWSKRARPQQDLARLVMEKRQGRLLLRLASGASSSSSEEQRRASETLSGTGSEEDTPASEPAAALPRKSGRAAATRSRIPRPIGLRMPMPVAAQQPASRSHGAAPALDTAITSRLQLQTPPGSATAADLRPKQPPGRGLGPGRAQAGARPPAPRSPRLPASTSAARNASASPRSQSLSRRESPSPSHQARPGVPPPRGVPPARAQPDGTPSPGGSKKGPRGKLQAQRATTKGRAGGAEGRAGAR

[27] = target: Serine/threonine-protein kinase 26 (Homo sapiens) (UniProt Q9P289); assay: Inhibition of MST4 (unknown origin) at 10 uM after 120 mins P33 radiolabeled kinase activity assay
[28] = target: Interleukin-1 receptor-associated kinase 4 (Homo sapiens) (UniProt Q9NWZ3); assay: Inhibition of IRAK4 (unknown origin) at 10 uM after 120 mins P33 radiolabeled kinase activity assay
[29] = target: Serine/threonine-protein kinase 24 (Homo sapiens) (UniProt Q9Y6E0); assay: Inhibition of MST3 (unknown origin) at 10 uM after 120 mins P33 radiolabeled kinase activity assay
[30] = target: Serine/threonine-protein kinase Nek6 (Homo sapiens) (UniProt Q9HC98); assay: Inhibition of NEK6 (unknown origin) at 10 uM after 120 mins P33 radiolabeled kinase activity assay
[31] = target: Serine/threonine-protein kinase WNK1 (Homo sapiens) (UniProt Q9H4A3); assay: Inhibition of WNK1 (unknown origin) at 10 uM after 120 mins P33 radiolabeled kinase activity assay
[32] = target: Dual specificity tyrosine-phosphorylation-regulated kinase 4 (Homo sapiens) (UniProt Q9NR20); assay: Inhibition of DYRK4 (unknown origin) at 10 uM after 120 mins P33 radiolabeled kinase activity assay
[33] = target: Wee1-like protein kinase (Homo sapiens) (UniProt P30291); assay: Inhibition of WEE1 (unknown origin) at 10 uM after 120 mins P33 radiolabeled kinase activity assay
[34] = target: Mitogen-activated protein kinase 7 (Homo sapiens) (UniProt Q13164); assay: Inhibition of ERK5 (unknown origin) at 10 uM after 120 mins P33 radiolabeled kinase activity assay

| inhibition [1] | inhibition [2] | inhibition [8] | inhibition [10] | inhibition [11] | inhibition [12] | inhibition [13] | inhibition [18] | inhibition [21] | inhibition [22] | inhibition [24] | inhibition [26] | inhibition [28] | inhibition [31] | Structure (SMILES) | also measured |
| --- | --- | --- | --- | --- | --- | --- | --- | --- | --- | --- | --- | --- | --- | --- | --- |
| 99.1% | -4.48% | 39.8% | 6.38% | 56.5% | 19.6% | 19.4% | -6.79% | 72.5% |  |  |  |  |  | CS(=O)(=O)c1cccc(Nc2nccc(-c3sc(N4CCOCC4)nc3-c3cccc(NS(=O)(=O)c4c(F)cccc4F)c3)n2)c1 | inhibition [3]: 96.6%; inhibition [4]: -5.48%; inhibition [5]: -6.51%; inhibition [6]: 49.7%; inhibition [7]: -7.87%; inhibition [9]: 7.44%; inhibition [14]: 9.88%; inhibition [15]: 46.7%; inhibition [16]: 11.2%; inhibition [17]: 80.9%; inhibition [19]: 42.4%; inhibition [20]: -4.6% |
|  | -7.05% | -7.82% | 6.03% | 5.25% |  |  | -3.57% |  | -7.72% | -4.56% | 7.91% | 13.9% | 8.03% | COCCNC(=O)c1ccc2c(c1)nc(-c1cnc(-c3ccc(Cl)cc3)[nH]1)n2CCOC | inhibition [23]: -0.09%; inhibition [25]: 10.8%; inhibition [27]: 3.31%; inhibition [29]: 23.8%; inhibition [30]: -5.95%; inhibition [32]: -3.46% |
| 53.8% |  |  |  |  | 6.56% | 1.14% |  | 22% | 60.5% | -5.34% | 8.16% | 24.7% | 5.52% | CC(C)(C)c1cc(NC(=O)Nc2ccc(Oc3ccncc3)cc2)no1 | inhibition [33]: -4.91%; inhibition [34]: -8.59% |
